Data from patent US10597383B2, “Bicyclic proline compounds” (Genentech, Inc., priority 2016, dated 2020).
pIC50: −log10 of the molar value.

The compounds below were run against human TRPA1 (Homo sapiens (Human), UniProt O75762) (assay: hTRPA1 CHO Ca2+ AUC EVO (IC50); FLIPR Tetra block of cinnamaldehyde induced calcium influx). Details: Table 1; CHO cells expressing TRPA1; 75 uM cinnamaldehyde (~EC80) as agonist.
Assay type: cell-based
Procedure: IC50 ([…]) of compounds on the human and rat TRPA1 channels were determined using a FLIPR Tetra instrument. CHO cells expressing TRPA1 were plated into 384-well plates, incubated overnight at 37° C., and loaded with BD calcium indicator dye for 1 hr at 37° C. followed by 15 minutes. at room temperature. The assay buffer was Hank's Balanced Salt Solution (HBSS) containing 20 mM HEPES (pH readjusted to 7.4) along with 0.02% BSA.
Following dye load and plate cool down, compounds were added to the cells using FLIPR Tetra. Plates were then incubated with compounds for 20 minutes at room temperature prior to adding agonist. Following this incubation, ˜EC80 concentration of cinnamaldehyde (75 uM for human TRPA1 and 45 uM for rat TRPA1) was added to active the channels and block of cinnamaldehyde induced calcium influx was measured.
IC50 values were fit with a standard Hill function, keeping the Hill coefficient (n) fixed to 1.5. Fixing the Hill coefficient will generally reduce variability of the IC50 determination. The IC50 values were individually examined to make sure the MIN and MAX points were set correctly prior to validation of the results.

human TRPA1, sequence (O75762 whole entry): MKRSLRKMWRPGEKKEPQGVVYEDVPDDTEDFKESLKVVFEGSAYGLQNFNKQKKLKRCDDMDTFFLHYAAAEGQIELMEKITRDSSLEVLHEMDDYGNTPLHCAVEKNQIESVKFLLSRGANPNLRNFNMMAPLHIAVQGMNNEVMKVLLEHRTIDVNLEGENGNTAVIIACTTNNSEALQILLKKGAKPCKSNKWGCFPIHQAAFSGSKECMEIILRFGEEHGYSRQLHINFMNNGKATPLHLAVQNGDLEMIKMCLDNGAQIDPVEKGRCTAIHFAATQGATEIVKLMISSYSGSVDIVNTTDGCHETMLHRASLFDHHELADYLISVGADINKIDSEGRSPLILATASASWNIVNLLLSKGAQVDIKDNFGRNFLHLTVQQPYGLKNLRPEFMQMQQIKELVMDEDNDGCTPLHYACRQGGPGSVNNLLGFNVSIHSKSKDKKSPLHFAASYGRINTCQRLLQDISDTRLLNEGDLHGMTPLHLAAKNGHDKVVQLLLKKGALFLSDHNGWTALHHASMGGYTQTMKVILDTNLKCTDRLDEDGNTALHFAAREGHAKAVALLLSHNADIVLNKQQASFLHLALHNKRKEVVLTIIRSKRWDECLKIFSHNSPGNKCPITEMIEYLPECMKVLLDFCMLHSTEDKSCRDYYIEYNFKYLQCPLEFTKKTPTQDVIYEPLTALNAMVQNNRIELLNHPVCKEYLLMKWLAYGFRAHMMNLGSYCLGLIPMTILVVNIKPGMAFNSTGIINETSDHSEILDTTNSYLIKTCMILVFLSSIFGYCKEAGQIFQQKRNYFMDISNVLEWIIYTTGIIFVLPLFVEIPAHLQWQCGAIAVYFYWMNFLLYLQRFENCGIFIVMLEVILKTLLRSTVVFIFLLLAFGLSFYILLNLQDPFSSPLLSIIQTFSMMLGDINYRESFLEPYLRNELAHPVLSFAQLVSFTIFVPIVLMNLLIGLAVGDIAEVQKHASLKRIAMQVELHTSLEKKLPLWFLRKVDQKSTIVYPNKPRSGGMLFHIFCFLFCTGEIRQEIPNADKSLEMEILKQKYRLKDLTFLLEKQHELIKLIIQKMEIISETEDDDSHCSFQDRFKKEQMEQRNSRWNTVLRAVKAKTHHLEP

| SMILES | pIC50 |
| --- | --- |
| O=C(NCc1cc(-c2cnc(C(F)(F)F)nc2)c(F)cn1)[C@@H]1C2CC(C2)N1S(=O)(=O)c1cc2cc(F)ccc2o1 | 8.97 |
| O=C(NCc1cc(-c2cnc(C(F)(F)F)nc2)ccc1F)[C@@H]1C2CC(C2)N1S(=O)(=O)c1ccc(F)cc1 [(2S)-3-(4-fluorophenyl)sulfonyl-N-[[2-fluoro-5-[2-(trifluoromethyl)pyrimidin-5-yl]phenyl]methyl]-3-azabicyclo[2.1.1]hexane-2-carboxamide] | 8.00 |
| O=C(NCc1cc(F)cc(-c2cnc(C(F)(F)F)nc2)c1)[C@@H]1C2CC(C2)N1S(=O)(=O)c1ccc(F)cc1 [(2S)-3-(4-fluorophenyl)sulfonyl-N-[[3-fluoro-5-[2-(trifluoromethyl)pyrimidin-5-yl]phenyl]methyl]-3-azabicyclo[2.1.1]hexane-2-carboxamide] | 8.05 |
| O=C(NCc1cc(-c2cnc(C(F)(F)F)nc2)ncc1OC(F)(F)F)[C@@H]1C2CC(C2)N1S(=O)(=O)c1ccc(F)cc1 [(2S)-3-(4-fluorophenyl)sulfonyl-N-[[5-(trifluoromethoxy)-2-[2-(trifluoromethyl)pyrimidin-5-yl]-4-pyridyl]methyl]-3-azabicyclo[2.1.1]hexane-2-carboxamide] | 8.56 |
| O=C(NCc1cc(-c2cnc(C(F)(F)F)nc2)ncc1C(F)(F)F)[C@@H]1C2CC(C2)N1S(=O)(=O)c1ccc(F)cc1 [(2S)-3-(4-fluorophenyl)sulfonyl-N-[[5-(trifluoromethyl)-2-[2-(trifluoromethyl)pyrimidin-5-yl]-4-pyridyl]methyl]-3-azabicyclo[2.1.1]hexane-2-carboxamide] | 8.58 |
| O=C(NCc1cc(-c2cnc(C(F)(F)F)nc2)ncc1C(F)(F)F)[C@@H]1C2CC(C2)N1S(=O)(=O)c1cc2cc(F)ccc2o1 [(2S)-3-(5-fluorobenzofuran-2-yl)sulfonyl-N-[[5-(trifluoromethyl)-2-[2-(trifluoromethyl)pyrimidin-5-yl]-4-pyridyl]methyl]-3-azabicyclo[2.1.1]hexane-2-carboxamide] | 8.73 |
| O=C(NCc1cc(-c2cnc(C(F)(F)F)nc2)nc(C2CC2)n1)[C@@H]1C2CC(C2)N1S(=O)(=O)c1ccc(F)cc1 [(2S)-N-[[2-cyclopropyl-6-[2-(trifluoromethyl)pyrimidin-5-yl]pyrimidin-4-yl]methyl]-3-(4-fluorophenyl)sulfonyl-3-azabicyclo[2.1.1]hexane-2-carboxamide] | 8.67 |
| O=C(NCc1cc(-c2cnc(C(F)(F)F)nc2)ncc1C(F)F)[C@@H]1C2CC(C2)N1S(=O)(=O)c1ccc(F)c(F)c1 [(2S)-N-[[5-(difluoromethyl)-2-[2-(trifluoromethyl)pyrimidin-5-yl]-4-pyridyl]methyl]-3-(3,4-difluorophenyl)sulfonyl-3-azabicyclo[2.1.1]hexane-2-carboxamide] | 8.05 |
| O=C(NCc1cc(-c2cnc(C(F)(F)F)nc2)ncc1C(F)F)[C@@H]1C2CC(C2)N1S(=O)(=O)c1ccc(F)cc1 [(2S)-N-[[5-(difluoromethyl)-2-[2-(trifluoromethyl)pyrimidin-5-yl]-4-pyridyl]methyl]-3-(4-fluorophenyl)sulfonyl-3-azabicyclo[2.1.1]hexane-2-carboxamide] | 8.00 |
| O=C(NCc1cc(-c2cnc(C(F)(F)F)nc2)ncc1Cl)[C@@H]1C2CC(C2)N1S(=O)(=O)c1ccc(F)c(F)c1 [(2S)-N-[[5-chloro-2-[2-(trifluoromethyl)pyrimidin-5-yl]-4-pyridyl]methyl]-3-(3,4-difluorophenyl)sulfonyl-3-azabicyclo[2.1.1]hexane-2-carboxamide] | 8.81 |
| O=C(NCc1cc(-c2cnc(C(F)(F)F)nc2)cc(C2CC2)n1)[C@@H]1C2CC(C2)N1S(=O)(=O)c1ccc(F)cc1 [(2S)-N-[[6-cyclopropyl-4-[2-(trifluoromethyl)pyrimidin-5-yl]-2-pyridyl]methyl]-3-(4-fluorophenyl)sulfonyl-3-azabicyclo[2.1.1]hexane-2-carboxamide] | 8.14 |

Second part, the compound after the results:

| pIC50 | SMILES |
| --- | --- |
| 8.33 | O=C(NCc1cc(Cl)nc(-c2cnc(C(F)(F)F)nc2)c1)[C@@H]1C2CC(C2)N1S(=O)(=O)c1ccc(F)cc1 [(2S)-N-[[2-chloro-6-[2-(trifluoromethyl)pyrimidin-5-yl]-4-pyridyl]methyl]-3-(4-fluorophenyl)sulfonyl-3-azabicyclo[2.1.1]hexane-2-carboxamide] |
| 8.42 | O=C(NCc1cc(-c2cnc(C(F)(F)F)nc2)ncc1Br)[C@@H]1C2CC(C2)N1S(=O)(=O)c1ccc(F)cc1 [(2S)-N-[[5-bromo-2-[2-(trifluoromethyl)pyrimidin-5-yl]-4-pyridyl]methyl]-3-(4-fluorophenyl)sulfonyl-3-azabicyclo[2.1.1]hexane-2-carboxamide] |

Same assay, conditions: Table 3; CHO cells expressing TRPA1; 75 uM cinnamaldehyde (~EC80) as agonist

| SMILES | pIC50 |
| --- | --- |
| O=C(NCc1cc(-c2ccc(C(F)(F)F)nc2)ncn1)[C@@H]1C2CC(C2)N1S(=O)(=O)c1ccc(F)cc1 [compound 3, (2S)-3-(4-fluorophenyl)sulfonyl-N-[[6-[6-(trifluoromethyl)-3-pyridyl]pyrimidin-4-yl]methyl]-3-azabicyclo[2.1.1]hexane-2-carboxamide] | 7.61 |
| O=C(NCc1cc(-c2cnc(C(F)(F)F)nc2)c(F)cn1)[C@@H]1C2CC(C2)N1S(=O)(=O)c1ccc(F)cc1 [compound 6, (2S)-3-(4-fluorophenyl)sulfonyl-N-[[5-fluoro-4-[2-(trifluoromethyl)pyrimidin-5-yl]-2-pyridyl]methyl]-3-azabicyclo[2.1.1]hexane-2-carboxamide] | 7.77 |
| O=C(NCc1cc(-c2cnc(C(F)(F)F)nc2)c(Cl)cn1)[C@@H]1C2CC(C2)N1S(=O)(=O)c1ccc(F)cc1 [compound 7, (2S)-N-[[5-chloro-4-[2-(trifluoromethyl)pyrimidin-5-yl]-2-pyridyl]methyl]-3-(4-fluorophenyl)sulfonyl-3-azabicyclo[2.1.1]hexane-2-carboxamide] | 7.68 |
| N#Cc1ccc(-c2cnc(C(F)(F)F)nc2)cc1CNC(=O)[C@@H]1C2CC(C2)N1S(=O)(=O)c1ccc(F)cc1 [compound 9, (2S)-N-[[2-cyano-5-[2-(trifluoromethyl)pyrimidin-5-yl]phenyl]methyl]-3-(4-fluorophenyl)sulfonyl-3-azabicyclo[2.1.1]hexane-2-carboxamide] | 7.77 |
| O=C(NCc1cc(-c2cnc(C(F)(F)F)nc2)nc(C2CC2)n1)[C@@H]1C2CC(C2)N1S(=O)(=O)c1ccc(F)cc1 [compound 10, (2S)-N-[[2-cyclopropyl-6-[2-(trifluoromethyl)pyrimidin-5-yl]pyrimidin-4-yl]methyl]-3-(4-fluorophenyl)sulfonyl-3-azabicyclo[2.1.1]hexane-2-carboxamide] | 8.67 |
| CC12CC(C1)[C@@H](C(=O)NCc1cc(-c3cnc(C(F)(F)F)nc3)c(F)cn1)N2S(=O)(=O)c1ccc(F)cc1 [compound 12, (2S)-3-(4-fluorophenyl)sulfonyl-N-[[5-fluoro-4-[2-(trifluoromethyl)pyrimidin-5-yl]-2-pyridyl]methyl]-4-methyl-3-azabicyclo[2.1.1]hexane-2-carboxamide] | 7.04 |
| O=C(NCc1cc(-c2cnc(C(F)(F)F)nc2)ncc1Cl)[C@@H]1C2CC(C2)N1S(=O)(=O)c1ccc(F)c(F)c1 [compound 13, (2S)-N-[[5-chloro-2-[2-(trifluoromethyl)pyrimidin-5-yl]-4-pyridyl]methyl]-3-(3,4-difluorophenyl)sulfonyl-3-azabicyclo[2.1.1]hexane-2-carboxamide] | 8.81 |

Further lines, results first:

| pIC50 | SMILES |
| --- | --- |
| 7.37 | O=C(NCc1cc(-c2cnc(C(F)(F)F)nc2)ncn1)[C@@H]1C2CC(C2)N1S(=O)(=O)c1ccc(F)cc1 [compound 1, (2S)-3-(4-fluorophenyl)sulfonyl-N-[[6-[2-(trifluoromethyl)pyrimidin-5-yl]pyrimidin-4-yl]methyl]-3-azabicyclo[2.1.1]hexane-2-carboxamide] |
| 7.95 | O=C(NCc1cc(-c2cnc(C(F)(F)F)nc2)ncc1F)[C@@H]1C2CC(C2)N1S(=O)(=O)c1ccc(F)cc1 [compound 2, (2S)-3-(4-fluorophenyl)sulfonyl-N-[[5-fluoro-2-[2-(trifluoromethyl)pyrimidin-5-yl]-4-pyridyl]methyl]-3-azabicyclo[2.1.1]hexane-2-carboxamide] |
| 7.44 | O=C(NCc1ccnc(-c2cnc(C(F)(F)F)nc2)c1)[C@@H]1C2CC(C2)N1S(=O)(=O)c1ccc(F)cc1 [compound 4, (2S)-3-(4-fluorophenyl)sulfonyl-N-[[2-[2-(trifluoromethyl)pyrimidin-5-yl]-4-pyridyl]methyl]-3-azabicyclo[2.1.1]hexane-2-carboxamide] |
| 8.33 | O=C(NCc1cc(Cl)nc(-c2cnc(C(F)(F)F)nc2)c1)[C@@H]1C2CC(C2)N1S(=O)(=O)c1ccc(F)cc1 [compound 5, (2S)-N-[[2-chloro-6-[2-(trifluoromethyl)pyrimidin-5-yl]-4-pyridyl]methyl]-3-(4-fluorophenyl)sulfonyl-3-azabicyclo[2.1.1]hexane-2-carboxamide] |
| 7.80 | N#Cc1cnc(-c2cnc(C(F)(F)F)nc2)cc1CNC(=O)[C@@H]1C2CC(C2)N1S(=O)(=O)c1ccc(F)cc1 [compound 8, (2S)-N-[[5-cyano-2-[2-(trifluoromethyl)pyrimidin-5-yl]-4-pyridyl]methyl]-3-(4-fluorophenyl)sulfonyl-3-azabicyclo[2.1.1]hexane-2-carboxamide] |
| 8.42 | O=C(NCc1cc(-c2cnc(C(F)(F)F)nc2)ncc1Br)[C@@H]1C2CC(C2)N1S(=O)(=O)c1ccc(F)cc1 [compound 14, (2S)-N-[[5-bromo-2-[2-(trifluoromethyl)pyrimidin-5-yl]-4-pyridyl]methyl]-3-(4-fluorophenyl)sulfonyl-3-azabicyclo[2.1.1]hexane-2-carboxamide] |
